# Literature values, collected in patent publication US9328386B2, “Markers for susceptibility to an inhibitor of an Src-family kinase” (Evotec (München) GmbH, priority 2011, dated 2016).
# Experiments:
# CSK = CSK (Homo sapiens, UniProt P41240); conditions: cited from earlier work
# EGFR = EGFR (Homo sapiens, UniProt P00533); conditions: cited from earlier work
# YES = YES (Homo sapiens, UniProt P07947); conditions: unit not given; cited from earlier work
# SRC = SRC (Homo sapiens, UniProt P12931); conditions: cited from earlier work
# Chain of SRC (P12931 whole entry, species assumed): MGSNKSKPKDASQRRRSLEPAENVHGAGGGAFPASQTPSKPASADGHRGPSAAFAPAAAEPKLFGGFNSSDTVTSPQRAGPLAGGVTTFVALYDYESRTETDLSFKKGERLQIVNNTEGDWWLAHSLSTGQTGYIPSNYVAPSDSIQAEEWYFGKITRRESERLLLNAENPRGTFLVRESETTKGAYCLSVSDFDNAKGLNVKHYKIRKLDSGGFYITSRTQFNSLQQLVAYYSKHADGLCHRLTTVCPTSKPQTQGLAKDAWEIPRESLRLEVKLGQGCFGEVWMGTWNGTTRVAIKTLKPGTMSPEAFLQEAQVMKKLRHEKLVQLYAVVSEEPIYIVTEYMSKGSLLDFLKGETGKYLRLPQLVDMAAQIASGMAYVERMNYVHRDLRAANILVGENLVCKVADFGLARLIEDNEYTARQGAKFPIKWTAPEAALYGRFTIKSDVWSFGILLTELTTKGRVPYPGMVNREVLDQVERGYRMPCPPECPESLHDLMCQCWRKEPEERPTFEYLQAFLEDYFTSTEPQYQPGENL
# VEGFR = conditions: cited from earlier work
# FGFR1 = FGFR1 (Homo sapiens, UniProt P11362); conditions: cited from earlier work
# Chain of FGFR1 (P11362 22-822, species assumed): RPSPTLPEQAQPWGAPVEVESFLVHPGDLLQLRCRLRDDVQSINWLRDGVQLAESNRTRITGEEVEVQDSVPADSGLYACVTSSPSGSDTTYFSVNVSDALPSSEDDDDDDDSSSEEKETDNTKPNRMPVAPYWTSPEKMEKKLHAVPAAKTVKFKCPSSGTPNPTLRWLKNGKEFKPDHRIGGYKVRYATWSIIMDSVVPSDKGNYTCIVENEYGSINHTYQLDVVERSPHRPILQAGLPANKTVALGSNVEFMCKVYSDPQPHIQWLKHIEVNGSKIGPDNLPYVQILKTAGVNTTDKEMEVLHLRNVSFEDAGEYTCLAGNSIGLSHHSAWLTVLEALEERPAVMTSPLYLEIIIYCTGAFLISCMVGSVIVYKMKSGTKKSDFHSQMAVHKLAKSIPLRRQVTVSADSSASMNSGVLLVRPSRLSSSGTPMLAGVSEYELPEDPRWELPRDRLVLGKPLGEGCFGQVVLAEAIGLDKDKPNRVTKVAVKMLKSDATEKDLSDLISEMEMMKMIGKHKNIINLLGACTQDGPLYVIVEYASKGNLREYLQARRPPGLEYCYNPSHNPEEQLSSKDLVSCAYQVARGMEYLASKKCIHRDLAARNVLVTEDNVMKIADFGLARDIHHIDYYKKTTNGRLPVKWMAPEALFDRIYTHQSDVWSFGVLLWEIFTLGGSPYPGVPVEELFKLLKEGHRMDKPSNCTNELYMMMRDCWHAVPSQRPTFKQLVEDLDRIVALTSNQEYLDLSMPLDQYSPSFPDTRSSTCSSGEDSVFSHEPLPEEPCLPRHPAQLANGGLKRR
# LCK = LCK (Homo sapiens, UniProt P06239); conditions: cited from earlier work
# Chain of LCK (P06239 whole entry, species assumed): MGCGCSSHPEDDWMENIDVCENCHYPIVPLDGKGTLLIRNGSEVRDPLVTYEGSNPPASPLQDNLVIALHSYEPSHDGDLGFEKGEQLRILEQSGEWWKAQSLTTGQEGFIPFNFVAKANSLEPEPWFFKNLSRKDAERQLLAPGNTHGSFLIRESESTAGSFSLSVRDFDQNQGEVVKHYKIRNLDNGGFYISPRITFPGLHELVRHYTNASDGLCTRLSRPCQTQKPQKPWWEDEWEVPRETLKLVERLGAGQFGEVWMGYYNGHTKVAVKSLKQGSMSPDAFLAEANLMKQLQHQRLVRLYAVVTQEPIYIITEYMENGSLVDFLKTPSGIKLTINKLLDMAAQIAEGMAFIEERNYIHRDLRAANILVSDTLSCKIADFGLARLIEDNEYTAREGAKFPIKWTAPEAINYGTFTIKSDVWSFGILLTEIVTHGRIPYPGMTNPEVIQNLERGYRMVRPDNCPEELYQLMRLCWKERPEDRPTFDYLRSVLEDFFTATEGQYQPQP
# SFK = conditions: cited from earlier work
# MET = MET (Homo sapiens, UniProt P08581); conditions: cited from earlier work
# Chain of CSK (P41240 whole entry, species assumed): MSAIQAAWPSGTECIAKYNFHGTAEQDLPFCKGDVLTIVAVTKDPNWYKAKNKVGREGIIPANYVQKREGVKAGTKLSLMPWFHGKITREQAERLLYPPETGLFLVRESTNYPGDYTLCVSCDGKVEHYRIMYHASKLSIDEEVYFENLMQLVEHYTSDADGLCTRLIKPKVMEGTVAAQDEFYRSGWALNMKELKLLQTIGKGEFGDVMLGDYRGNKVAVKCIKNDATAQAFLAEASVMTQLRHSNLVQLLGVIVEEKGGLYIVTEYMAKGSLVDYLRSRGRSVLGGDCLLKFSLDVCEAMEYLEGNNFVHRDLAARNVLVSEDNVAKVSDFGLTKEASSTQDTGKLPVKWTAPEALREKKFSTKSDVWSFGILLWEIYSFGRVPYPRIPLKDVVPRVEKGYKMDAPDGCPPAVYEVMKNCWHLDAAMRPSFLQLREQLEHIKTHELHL
# Chain of EGFR (P00533 25-1210, species assumed): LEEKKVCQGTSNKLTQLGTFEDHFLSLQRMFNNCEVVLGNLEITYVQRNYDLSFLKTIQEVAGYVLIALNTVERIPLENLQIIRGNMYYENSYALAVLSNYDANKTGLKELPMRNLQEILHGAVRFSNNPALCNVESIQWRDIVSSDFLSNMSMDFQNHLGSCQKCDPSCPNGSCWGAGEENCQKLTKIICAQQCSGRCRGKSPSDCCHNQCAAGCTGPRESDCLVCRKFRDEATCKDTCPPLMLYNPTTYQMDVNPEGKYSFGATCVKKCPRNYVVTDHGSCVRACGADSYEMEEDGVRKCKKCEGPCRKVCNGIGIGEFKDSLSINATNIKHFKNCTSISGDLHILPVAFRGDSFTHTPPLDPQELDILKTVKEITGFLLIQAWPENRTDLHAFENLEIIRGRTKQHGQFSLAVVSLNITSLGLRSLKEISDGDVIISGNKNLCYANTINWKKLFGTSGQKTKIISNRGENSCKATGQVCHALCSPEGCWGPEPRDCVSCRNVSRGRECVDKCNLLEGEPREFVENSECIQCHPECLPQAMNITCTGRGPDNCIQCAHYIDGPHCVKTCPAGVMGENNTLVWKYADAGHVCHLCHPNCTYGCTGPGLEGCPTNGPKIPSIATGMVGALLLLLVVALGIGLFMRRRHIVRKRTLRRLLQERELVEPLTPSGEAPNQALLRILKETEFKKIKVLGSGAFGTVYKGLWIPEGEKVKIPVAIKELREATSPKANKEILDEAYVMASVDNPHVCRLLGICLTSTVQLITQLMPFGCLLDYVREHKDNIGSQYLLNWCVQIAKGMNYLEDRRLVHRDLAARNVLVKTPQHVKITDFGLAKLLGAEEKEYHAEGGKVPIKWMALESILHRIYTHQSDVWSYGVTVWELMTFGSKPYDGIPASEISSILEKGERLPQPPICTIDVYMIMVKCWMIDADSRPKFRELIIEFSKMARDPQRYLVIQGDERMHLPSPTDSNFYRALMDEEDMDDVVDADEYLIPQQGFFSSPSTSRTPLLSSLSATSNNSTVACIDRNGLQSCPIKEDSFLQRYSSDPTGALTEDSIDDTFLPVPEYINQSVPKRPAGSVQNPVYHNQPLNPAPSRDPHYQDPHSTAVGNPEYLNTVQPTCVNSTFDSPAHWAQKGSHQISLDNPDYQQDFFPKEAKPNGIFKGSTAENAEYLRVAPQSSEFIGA
# Chain of YES (P07947 whole entry, species assumed): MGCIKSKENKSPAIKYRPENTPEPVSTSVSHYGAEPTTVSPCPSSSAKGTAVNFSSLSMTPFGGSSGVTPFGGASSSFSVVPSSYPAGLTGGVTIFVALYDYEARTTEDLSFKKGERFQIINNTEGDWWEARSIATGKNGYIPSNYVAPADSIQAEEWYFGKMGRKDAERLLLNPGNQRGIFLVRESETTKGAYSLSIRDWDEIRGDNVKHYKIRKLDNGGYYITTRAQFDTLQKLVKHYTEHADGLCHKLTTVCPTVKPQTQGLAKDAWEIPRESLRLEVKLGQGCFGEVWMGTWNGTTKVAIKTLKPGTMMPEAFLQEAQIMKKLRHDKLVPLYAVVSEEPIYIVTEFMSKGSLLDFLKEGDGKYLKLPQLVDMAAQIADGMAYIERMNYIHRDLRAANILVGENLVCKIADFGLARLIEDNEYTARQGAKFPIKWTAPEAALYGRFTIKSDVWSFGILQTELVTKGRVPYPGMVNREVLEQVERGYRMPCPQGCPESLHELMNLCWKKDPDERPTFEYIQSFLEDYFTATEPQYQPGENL
Compound,Affinities (basic outline) (CSK) [µM],Affinities (basic outline) (EGFR) [nM],Affinities (basic outline) (YES),Affinities (basic outline) (SRC) [nM],Affinities (basic outline) (VEGFR) [nM],Affinities (basic outline) (FGFR1) [µM],Affinities (basic outline) (LCK) [nM],Affinities (basic outline) (SFK) [nM],Affinities (basic outline) (MET) [nM]
"COc1ccc(Cl)c(Nc2ncnc3cc(OCC4CCN(C)CC4)c(OC)cc23)c1 [M475271, 4-quinazolinamine, N-(2-chloro-5-methoxyphenyl)-6-methoxy-7-[(1-methyl-4-piperidinyl)methoxy]-(9Cl)]",7.6,600,10,25,500,20,200,–,–
"CN(C)S(=O)(=O)c1ccc2c(c1)/C(=C/c1cc3c([nH]1)CCCC3)C(=O)N2 [SU6656, (2-oxo-3-(4,5,6,7-tetrahydro-1H-indol-2-ylmethylene)-2,3-dihydro-1H-indole-5-sulfonic acid dimethylamide)]",0.007,–,–,–,–,–,–,0.02 to 6.88,3
